Reference: publication PMC12278645, “Design, synthesis, and antitumor activity of novel thioheterocyclic nucleoside derivatives by suppressing the c-MYC pathway” (Acta Pharmaceutica Sinica. B, 2025)

How the values were obtained:
HeLa cells = assay: CCK-8 anti-proliferation assay, HeLa; type: cell-based, human
Description: (§1) Tumor cell anti-proliferation activities were determined by cell counting kit-8 (CCK-8) assay.
(§2) MCF-7, A375, and HeLa cells were cultured in DMEM, HCT116 cells were cultured in McCoy's 5A medium, and DU145 and CT26 were cultured in RPMI 1640 with 10% FBS, 1% penicillin-streptomycin solution (10,000 U/mL penicillin and 10,000 μg/mL streptomycin) at 37 °C under 5% CO2. The cells were seeded in 96-well plates (4 × 10^3 cells/well) overnight and then treated with various concentrations (1–50 μmol/L) of the compound. After 48 h, the cell viability was measured by CCK-8 assay. The absorbance of each well was measured using a microplate reader (Multiskan FC, Thermo Fisher Scientific, Massachusetts, USA) at 450 nm wavelength. Assays were performed in triplicate. Compound concentrations that inhibited cell growth by 50% (IC50) were calculated from the dose–response curves of each cell line. Data are mean ± SD values from three independent experiments.

HCT116 cells = assay: CCK-8 anti-proliferation assay, HCT116; type: cell-based, human; conditions: for anticancer activity: under 50 μmol/L, HeLa and HCT116
Description: as §1, §2

[1] = Homo sapiens, HeLa, 48 h, CCK-8, 48 h, mean ± SD, three independent experiments
[2] = Homo sapiens, HCT-116, 48 h, CCK-8, 48 h, mean ± SD, three independent experiments
[3] = CCK-8, 48 h, mean ± SD, three independent experiments

SMILES	IC50 (HeLa cells; [1]) [µM]	IC50 (HCT116 cells; [2]) [µM]	IC50 (HeLa cells; [3]) [µM]	IC50 (HCT116 cells; [3]) [µM]	further results
CCCCSc1ncnc2c1ncn2[C@@]1(C(=O)OCC)CSC[C@H]1O (relative stereo) [25a]	9.89 ± 1.02	9.07 ± 0.49	–	–	–
CCOC(=O)C1(n2cnc3c(Cl)nc(Cl)nc32)CSCC1O (single isomer, unassigned) [40a]	–	–	–	–	IC50 (HeLa cells; Table S3, CCK-8, mean ± SD): 8.21 ± 1.25 µM; IC50 (HCT116 cells; Table S3, CCK-8, mean ± SD): 5.37 ± 1.02 µM
CCOC(=O)[C@@]1(n2cnc3c(N4CCCCC4)nc(F)nc32)CSC[C@@H]1O [33 ab]	10.1 ± 1.02	0.21 ± 0.13	–	–	–
CCOC(=O)[C@]1(n2cnc3c(SCC)ncnc32)CSC[C@@H]1O (relative stereo) [22b]	3.27 ± 0.82	2.42 ± 0.82	–	–	–
CCOC(=O)C1(n2cnc3c(N4CCC(Cl)CC4)ncnc32)CSCC1O (single isomer, unassigned) [14b]	–	–	14.3 ± 1.58	18 ± 2.37	–
CCCSc1nc(F)nc2c1ncn2[C@@]1(C(=O)OCC)CSC[C@@H]1O [36ba]	–	–	5.52 ± 1.12	0.89 ± 0.14	–
CCOC(=O)C1(n2cnc3c(N4CCCCC4)nc(N)nc32)CSCC1O (single isomer, unassigned) [32a]	–	–	5.35 ± 1.05	0.72 ± 0.08	–
CCOC(=O)[C@]1(n2cnc3c(Sc4ccc(C(C)(C)C)cc4)ncnc32)CSC[C@@H]1O (relative stereo) [29b]	15.1 ± 2.08	6.78 ± 1.22	–	–	–
CCOC(=O)C1(n2cnc3c(N4CCCCC4)nc(Cl)nc32)CSCC1O (single isomer, unassigned) [34b]	–	–	4.05 ± 0.37	4.3 ± 0.51	–
CCOC(=O)C1(n2cnc3cnc(Cl)nc32)CSCC1O (stereo not drawn) [41a]	–	–	–	–	IC50 (HeLa cells; Table S3, CCK-8, mean ± SD): > 50 µM; IC50 (HCT116 cells; Table S3, CCK-8, mean ± SD): > 50 µM
CCOC(=O)C1(n2cnc3c(N4CCOCC4)ncnc32)CSCC1O (single isomer, unassigned) [9a]	–	–	10.8 ± 1.03	> 50	–
CCOC(=O)C1(n2cnc3c(N4CCCC4)ncnc32)CSCC1O (single isomer, unassigned) [20b]	–	–	12.2 ± 1.28	22.8 ± 1.04	–
CCOC(=O)C1(n2cnc3c(N4CCOCC4)nc(Cl)nc32)CSCC1O (single isomer, unassigned) [42b]	–	–	–	–	IC50 (HeLa cells; Table S3, CCK-8, mean ± SD): 3.21 ± 0.65 µM; IC50 (HCT116 cells; Table S3, CCK-8, mean ± SD): 4.48 ± 0.56 µM
CCOC(=O)C1(n2cnc3c(Cl)nc(N)nc32)CSCC1O (single isomer, unassigned) [38a]	–	–	–	–	IC50 (HeLa cells; Table S3, CCK-8, mean ± SD): 25.6 ± 2.13 µM; IC50 (HCT116 cells; Table S3, CCK-8, mean ± SD): 30.5 ± 1.42 µM
CCCCSc1ncnc2c1ncn2[C@@]1(C(=O)OCC)CSC[C@@H]1O (relative stereo) [25b]	6.32 ± 0.82	2.84 ± 0.27	–	–	–
CCOC(=O)[C@]1(n2cnc3c(SCCCF)ncnc32)CSC[C@@H]1O (relative stereo) [30b]	12.1 ± 1.12	10.9 ± 1.01	–	–	–

SMILES	IC50 (HeLa cells; [1]) [µM]	IC50 (HCT116 cells; [2]) [µM]	IC50 (HeLa cells; [3]) [µM]	IC50 (HCT116 cells; [3]) [µM]	further results
CCOC(=O)C1(n2cnc3c(N4CCC(C)CC4)ncnc32)CSCC1O (single isomer, unassigned) [11b]	–	–	23.4 ± 2.76	0.91 ± 0.27	–
CCOC(=O)C1(n2cnc3c(N4CCC(F)CC4)ncnc32)CSCC1O (single isomer, unassigned) [12a]	–	–	44.5 ± 3.12	1.64 ± 0.27	–
CCOC(=O)C1(n2cnc3c(N4CCC(C(F)(F)F)CC4)ncnc32)CSCC1O (single isomer, unassigned) [13b]	–	–	38.7 ± 2.09	2.37 ± 0.36	–
CCOC(=O)C1(n2cnc3c(N4CCCCC4)nc(N)nc32)CSCC1O (single isomer, unassigned) [32b]	–	–	5.37 ± 1.09	0.81 ± 0.12	–
CCOC(=O)C1(n2cnc3c(N4CCC(C)CC4)ncnc32)CSCC1O (single isomer, unassigned) [11a]	–	–	21.8 ± 2.42	1.44 ± 0.13	–
CCOC(=O)[C@]1(n2cnc3c(SC)ncnc32)CSC[C@@H]1O (relative stereo) [21b]	8.83 ± 0.78	32.7 ± 1.17	–	–	–
CCOC(=O)C1(n2cnc3c(N4CCC(C(F)(F)F)CC4)ncnc32)CSCC1O (single isomer, unassigned) [13a]	–	–	42 ± 2.12	5.89 ± 1.02	–
CCOC(=O)C1(n2cnc3c(N4CCC(Cc5ccccc5F)CC4)ncnc32)CSCC1O (single isomer, unassigned) [17a]	–	–	17 ± 1.03	4.4 ± 1.02	–
CCCSc1nc(N)nc2c1ncn2C1(C(=O)OCC)CSCC1O (single isomer, unassigned) [35b]	–	–	8.49 ± 1.02	0.65 ± 0.21	–
CCOC(=O)C1(n2cnc3c(N4CCCCCC4)ncnc32)CSCC1O (single isomer, unassigned) [19b]	–	–	46.1 ± 2.46	3.05 ± 0.67	–
CCOC(=O)C1(n2cnc3c(N4CCC(Cc5ccccc5)CC4)ncnc32)CSCC1O (stereo not drawn) [16a]	–	–	3.34 ± 0.36	1.2 ± 0.09	–
CCOC(=O)C1(n2cnc3c(Cl)nc(N)nc32)CSCC1O (single isomer, unassigned) [38b]	–	–	–	–	IC50 (HeLa cells; Table S3, CCK-8, mean ± SD): 22.5 ± 2.17 µM; IC50 (HCT116 cells; Table S3, CCK-8, mean ± SD): 10.6 ± 1.02 µM
CCOC(=O)[C@]1(n2cnc3c(SCCCF)ncnc32)CSC[C@H]1O (relative stereo) [30a]	10.8 ± 1.07	19.1 ± 1.37	–	–	–
CCOC(=O)C1(n2cnc3c(N4CCCCC4)nc(Cl)nc32)CSCC1O (single isomer, unassigned) [34a]	–	–	4.86 ± 0.65	7.2 ± 0.39	–
CCOC(=O)C1(n2cnc3c(N4CCOCC4)nc(Cl)nc32)CSCC1O (single isomer, unassigned) [42a]	–	–	–	–	IC50 (HeLa cells; Table S3, CCK-8, mean ± SD): 6.32 ± 1.02 µM; IC50 (HCT116 cells; Table S3, CCK-8, mean ± SD): 24.2 ± 1.32 µM

The next lines start with results.

IC50 (HeLa cells; [1]) [µM]	IC50 (HCT116 cells; [2]) [µM]	IC50 (HeLa cells; [3]) [µM]	IC50 (HCT116 cells; [3]) [µM]	SMILES	further results
9.49 ± 1.18	0.37 ± 0.08	–	–	CCCSc1nc(F)nc2c1ncn2[C@]1(C(=O)OCC)CSC[C@H]1O [36bb]	–
5.46 ± 1.02	7.56 ± 1.09	–	–	CCOC(=O)[C@]1(n2cnc3c(SCC)ncnc32)CSC[C@H]1O (relative stereo) [22a]	–
–	–	> 50	> 50	CCOC(=O)C1(n2cnc3c(Cl)ncnc32)CSCC1O (single isomer, unassigned) [2b]	–
31 ± 2.18	44.1 ± 1.36	–	–	CCOC(=O)[C@]1(n2cnc3c(SC)ncnc32)CSC[C@H]1O (relative stereo) [21a]	–
–	–	> 50	8.97 ± 1.03	CCOC(=O)C1(n2cnc3c(Br)ncnc32)CSCC1O (single isomer, unassigned) [3a]	–
–	–	> 50	> 50	CCOC(=O)C1(n2cnc3c(Br)ncnc32)CSCC1O (single isomer, unassigned) [3b]	–
9.47 ± 1.02	12.8 ± 1.08	–	–	CCOC(=O)[C@]1(n2cnc3c(Sc4cccc(F)c4)ncnc32)CSC[C@H]1O (relative stereo) [28a]	–
–	–	> 50	48.9 ± 2.12	CCOC(=O)C1(n2cnc3c(Cl)ncnc32)CSCC1O (single isomer, unassigned) [2a]	–
> 50	> 50	–	–	CCOC(=O)[C@]1(n2cnc3c(SCCCCl)ncnc32)CSC[C@@H]1O (relative stereo) [31b]	–
8.45 ± 1.23	4.85 ± 1.02	–	–	CCOC(=O)[C@]1(n2cnc3c(SC(C)C)ncnc32)CSC[C@H]1O (relative stereo) [23a]	–
> 50	11.8 ± 1.27	–	–	CCCCCSc1ncnc2c1ncn2[C@@]1(C(=O)OCC)CSC[C@@H]1O (relative stereo) [26b]	–
–	–	5.98 ± 1.25	2.7 ± 0.04	CCCSc1nc(Cl)nc2c1ncn2C1(C(=O)OCC)CSCC1O (single isomer, unassigned) [37b]	–
–	–	12 ± 1.57	49.5 ± 2.02	CCOC(=O)C1(n2cnc3c(N(C)C)ncnc32)CSCC1O (single isomer, unassigned) [4b]	–
–	–	7.71 ± 1.02	32 ± 2.09	CCOC(=O)C1(n2cnc3c(N4CCC(N5CCOCC5)CC4)ncnc32)CSCC1O (single isomer, unassigned) [15b]	–
3.43 ± 0.76	4.01 ± 0.88	–	–	CCOC(=O)[C@]1(n2cnc3c(SC(C)C)ncnc32)CSC[C@@H]1O (relative stereo) [23b]	–
–	–	13.7 ± 1.33	43.9 ± 2.11	CCOC(=O)C1(n2cnc3c(N4CCC(N5CCOCC5)CC4)ncnc32)CSCC1O (single isomer, unassigned) [15a]	–
–	–	10.2 ± 1.93	10.1 ± 1.01	CCOC(=O)C1(n2cnc3c(N4CCSCC4)ncnc32)CSCC1O (single isomer, unassigned) [10b]	–
14.9 ± 2.01	1.66 ± 0.13	–	–	C#CCSc1ncnc2c1ncn2[C@@]1(C(=O)OCC)CSC[C@@H]1O (relative stereo) [24b]	–
6.07 ± 0.78	11.9 ± 1.32	–	–	CCCCCSc1ncnc2c1ncn2[C@@]1(C(=O)OCC)CSC[C@H]1O (relative stereo) [26a]	–
–	–	9.44 ± 1.27	0.73 ± 0.11	CCCSc1nc(N)nc2c1ncn2C1(C(=O)OCC)CSCC1O (single isomer, unassigned) [35a]	–
–	–	> 50	> 50	CCOC(=O)C1(n2cnc3c(OC)ncnc32)CSCC1O (stereo not drawn) [7a]	–
21.2 ± 2.37	7.6 ± 1.22	–	–	CCOC(=O)[C@]1(n2cnc3c(Sc4ccc(C(C)(C)C)cc4)ncnc32)CSC[C@H]1O (relative stereo) [29a]	–
–	–	> 50	> 50	CCOC(=O)C1(n2cnc3c(N4CCN(C)CC4)ncnc32)CSCC1O (stereo not drawn) [18a]	anticancer activity (HCT116 cells): inactive
23.9 ± 2.38	5.65 ± 1.4	–	–	CCOC(=O)[C@]1(n2cnc3c(SCc4ccccc4)ncnc32)CSC[C@@H]1O (relative stereo) [27b]	–
> 50	> 50	–	–	CCOC(=O)[C@]1(n2cnc3c(SCCCCl)ncnc32)CSC[C@H]1O (relative stereo) [31a]	–
–	–	> 50	> 50	CCOC(=O)C1(n2cnc3c(OCC)ncnc32)CSCC1O (stereo not drawn) [6a]	–
–	–	> 50	> 50	CCOC(=O)C1(n2cnc3cncnc32)CSCC1O (stereo not drawn) [1a]	anticancer activity (HCT116 cells): no anticancer activity
–	–	1.58 ± 0.36	3.81 ± 0.13	CCCSc1nc(Cl)nc2c1ncn2C1(C(=O)OCC)CSCC1O (single isomer, unassigned) [37a]	–
